Laboratory results taken from patent US6495593B1, “Compositions for preventing or treating adverse physiological effects associated with cardiac disease” (Dry Creek Nutrition, Inc., priority 1999, dated 2002).

Assays:
[1] = In vitro hydroxyl radical scavenging assay (γ-irradiated coumarin-3-carboxylic acid); details: 1 mM; 10^-5 M CCA, γ-irradiation
Protocol: Aqueous solution of coumarin-3-carboxylic acid (CCA) was diluted in PBS buffer, pH 7.4 to give a final concentration of 10^−5 M. Polymethylmethacrylate cuvettes containing 2.5 mL CCA solution were irradiated with ^137Cs γ-ray (dose rate 1.14 Gy/min) (MDS Nordian., Ontario, Canada) at room temperature. […] Fluorescence was measured at room temperature with a Perkin Elmer LS 50 fluorimeter (excitation 400 nm, emission 450 nm) (Collins et al., “Coumarin Chemical Dosimeter for Radiation Therapy,” Med. Phys., 21: 1741-1747 (1994)). […] The scavenging activity of the proanthocyanidin extract was compared against 1 mM DMSO.

[2] = In vitro peroxyl radical scavenging assay (AAPH / 5-/6-carboxyfluorescein); details: 25 μg/mL; AAPH 2 mM
Protocol: Peroxyl radical scavenging activity was examined by adding proanthocyanidin to a peroxyl radical generating system (Makrigiorgos et al., “Novel Fluorescein-Based Flow Cytometric Method for Detection of Lipid Peroxidation,” Free Rad. Biol. Med., 22:93-100 (1997)). Peroxyl radicals were generated by dissolving 2,2′-azobis (2-amidinopropane) dihydrochloride (AAPH) in phosphate buffered saline (PBS) at 37° C. Scavenging activity of proanthocyanidin was compared with trolox (100 μM), a known peroxyl radical scavenger.

Structure (SMILES): C[S+](C)[O-] [DMSO, dimethyl sulfoxide]
- induction of 7-OH-CCA formation (hydroxyl radical scavenging) [1]: reduced the induction of 7-OH-CCA formation

Structure (SMILES): Cc1c(C)c2c(c(C)c1O)CCC(C)(C(=O)O)O2 (centres unmarked) [trolox]
- peroxyl radical scavenging activity relative to proanthocyanidin 10 μg/mL [2]: comparable
